Our source for the GI50 and TGI values is PubChem BioAssay (NCI).

Each structure is given as a SMILES string. “And” between values parts separate entries of the source, which are not always exact repeats. Equal values may be shown once.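 All cell lines were grown in 96-well plates and treated with compound for 48 hours. Abbreviation: GI50, concentration required for 50% inhibition of growth. Definition used: TGI = concentration required for complete inhibition of growth.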 Some results are limits rather than exact numbers.

What all share (assay): growth of human tumour cells (NCI), 48 h
Experiment [1] deals with A498 renal.
Experiment [2] has as its system HCT-116 colon.
Experiment [3] relates to IGROV1 ovarian.
In experiment [4] the test system is K-562 leukemia.
The subject of experiment [5] is NCI-H23 lung.
Experiment [6] deals with OVCAR-4 ovarian.
Experiment [7] deals with OVCAR-8 ovarian.
Experiment [8] relates to SF-295 CNS.
For experiment [9], the system named is SF-539 CNS.
Experiment [10] has as its system SW-620 colon.

As for `O=C(CCCCN1CCN(CCCCC(=O)Nc2ccccc2C#C/C=C\C#Cc2ccccc2C(F)(F)F)CC1)Nc1ccccc1C#C/C=C\C#Cc1ccccc1C(F)(F)F`, the GI50 is 11.7 µM in experiment [1]; 9.18 µM in [2]; 9.37 µM in experiment [3]; 8.04 µM in experiment [4]; 13.8 µM in [5]; 16.2 µM in experiment [6]. In addition, the GI50 in [7] was 12.2 µM; in [8] it was 19 µM; in [9], 10.2 µM; in experiment [10], 9.39 µM. In addition, the TGI in experiment [1] came to 22.9 µM; in experiment [2], 17.8 µM; in [3], 26.2 µM; in [4], 34.8 µM; in [5], 38.9 µM; in experiment [6] it was 49.5 µM. Further, the TGI is 28.5 µM in experiment [7], over 50 µM in experiment [8], 19.3 µM in experiment [9] and 18.4 µM in [10].
Take `Cc1cc(OC2OC(CO)C(O)C(O)C2O)ccc1O` (stereo unspecified): the TGI in experiment [1], in [2], in experiment [3], in experiment [4], in [5] and in experiment [6] was over 100 µM in each case. The TGI in [7], in experiment [8], in experiment [9] and in experiment [10] was over 100 µM each time.
On to `CN1CCCc2nc3ccccc3n2C1`, for which the TGI in experiment [1], in experiment [2], in [3], in [4], in [5] and in [6] was over 100 µM throughout. Also, the TGI in experiment [7], in experiment [8], in experiment [9] and in [10] was over 100 µM in each case.
As to `CCN1C(=O)N(CC)C2C1NC(=S)N2/N=C/C=C/c1ccccc1` (stereo unspecified), the GI50 is 0.0249 µM in experiment [1]; 0.106 µM in [2]; 0.142 µM in experiment [3]; 0.0495 µM in experiment [4]; 0.546 µM in [5]; 3.31 µM in experiment [6]. Besides, the GI50 was 0.27 µM in experiment [7], 0.0666 µM in experiment [8], 0.0633 µM in [9] and 0.0726 µM in [10]. Moreover, the TGI in [1] was 0.146 µM; in experiment [2], over 100 µM; in [3] it was over 100 µM; in [4] it was over 100 µM; in [5], over 100 µM; in experiment [6] it was over 100 µM. The TGI was over 100 µM in experiment [7], over 100 µM in [8], 0.871 µM in experiment [9] and over 100 µM in [10].
On to `O=C1OC(=O)c2c1nc1ccccc1c2-c1ccccc1`, for which the TGI in experiment [1], in [2], in experiment [3], in [4], in experiment [6] and in experiment [7] was over 100 µM in each case. Moreover, the TGI in [8], in experiment [9] and in [10] was over 100 µM each time.
Take `COC(=O)[C@]12CC[C@@H](C)[C@H](C)[C@@H]1C1=CC[C@@H]3[C@@]4(C)C(C=O)=C[C@@](C)(COS(C)(=O)=O)C4=CC[C@@]3(C)[C@]1(C)CC2`: the GI50 in experiment [1] was 0.193 µM; in [2] it was 0.16 µM; in [3], 0.318 µM; in experiment [4] it was 0.308 µM; in experiment [5], 0.303 µM; in experiment [7] it was 0.332 µM. Moreover, the GI50 is 0.296 µM in [8], 0.207 µM in [9] and 0.209 µM in [10]. Also, the TGI came out at 1.13 µM in experiment [1]; 0.321 µM in experiment [2]; 1.06 µM in experiment [3]; 1.17 µM in [4]; 1.34 µM in [5]; 1.62 µM in experiment [7]. Besides, the TGI amounted to 1.26 µM in [8], 0.451 µM in experiment [9] and 0.484 µM in experiment [10].
Consider `CC1CCCP(=O)(c2ccccc2)CCC1` (stereo unspecified), for which the TGI in experiment [1], in [3], in [4], in experiment [5], in experiment [6] and in experiment [7] was over 100 µM in each case. For the same compound, the TGI in [8], in experiment [9] and in [10] was over 100 µM throughout.
As for `COc1ccc([C@@]23Oc4cc(OC)cc(OC)c4[C@]2(O)[C@H](O)[C@H](C(=O)N(C)C)[C@H]3c2ccccc2)cc1`, the GI50 in experiment [1] was 0.0155 µM; in experiment [3], 0.0248 µM; in [4], 0.00334 µM; in [5], 0.0152 µM; in experiment [6], 0.0149 µM; in [7], 0.0208 µM. For the same compound, the GI50 in experiment [8] was 0.0124 µM. Moreover, the TGI in experiment [1] was 0.0234 µM and 0.00719 µM and 0.0403 µM; in experiment [4], 25 µM and > 100 µM; in experiment [7], 0.244 µM and 0.236 µM and 0.488 µM; in experiment [8] it was 0.0433 µM and 0.0867 µM; in experiment [9] it was 0.00512 µM and 0.0154 µM; in [10], 1.02 µM and 0.26 µM and 0.244 µM.
Regarding `CS(=O)(=O)OCCN1CCN(C(=O)c2ccc(Cl)c3c(Nc4ccc(S(=O)(=O)N=C(N)N)cc4)c4ccccc4nc23)CC1`, the TGI in experiment [1], in experiment [2], in experiment [3], in [4], in [5] and in experiment [6] was over 100 µM each time. The TGI in experiment [7], in [8] and in experiment [9] was over 100 µM in each case.
For the compound `C1CN2CCO[SiH](O1)OCC2`, the TGI in [1], in experiment [2], in [3], in experiment [4], in experiment [5] and in experiment [7] was over 100 µM in each case. Moreover, the TGI in [8], in experiment [9] and in [10] was over 100 µM each time.
For the compound `CCOC(=O)C1=C(C)N(NC(N)=O)C2(N)N(NC(N)=O)C(C)=C(C(=O)OCC)C12C#N` (stereo unspecified), the TGI in experiment [1], in experiment [2], in [3], in experiment [4], in experiment [6] and in experiment [7] was over 100 µM in each case. In addition, the TGI in experiment [8], in [9] and in experiment [10] was over 100 µM each time.
